Test results taken from US20230201118A1, “PRODRUG COPOLYMERS AND POLYMERIC MICELLES THEREOF FOR THE DELIVERY OF SHORT-CHAIN FATTY ACIDS, THE PROMOTION OF GUT HEALTH, AND THE TREATMENT OF IMMUNE AND/OR INFLAMMATORY CONDITIONS AND FOOD ALLERGY” (The University of Chicago, priority 2021, published 2023).

Test system: APCs in the draining LNs
Assay: Subcutaneous LPS stimulation: activation markers CD40 and CD86 on APCs in draining LNs
Format: in vivo, mouse
Details: s.c. treatment, LPS challenge on Day 6
Description: In order to assess the ability of lymph node targeted Neg-ButM in suppressing the activation of APCs, the investors tested on a mouse model of subcutaneous lipopolysaccharide (LPS) stimulation and evaluated on the activation marker including CD40 and CD86 on the major APCs in the draining LNs. Mice were injected with either PBS, sodium butyrate (NaBut), NtL-ButM, or Neg-ButM subcutaneously at the abdomen site. On Day 6, Mice were challenged with LPS on the same injection site, and sacrificed the next day for the cellular analysis.

CCCC(=O)[O-].[Na+] [sodium butyrate]
suppression of APC activation: neither the NtL-ButM, nor sodium butyrate showed any significant suppression on the APC activations
